Source: patent publication US20190119642A1, “METHODS AND COMPOSITIONS RELATING TO HEMATOPOIETIC STEM CELL EXPANSION” (CHILDREN'S MEDICAL CENTER CORPORATION, priority 2016, published 2019)

Test system: CD34+ enriched cord blood cells
Experiment: Ex vivo expansion of CD34+ enriched cord blood cells, 12 days in culture with small molecules, flow cytometry
Conditions: for percentage and total number of Lin-CD34+ and Lin- cells: CD34+ cord blood cells cultured in vitro 12 days, FIGS. 21-23
Procedure: CD34+ enriched cord blood cells were obtained from AllCells. Ten thousand cells were cultured in StemSpan SFEMII containing recombinant human SCF, TPO, IL-3 and FLT3L (all at 100 ng/ml). Cells were cultured with cytokine containing media with the vehicle control (DMSO) or the indicated small molecules. Media was changed every three days. On day twelve, cells were harvested, counted, and analyzed by flow cytometry.
Plots show samples previously gated through live (PI-) and singlet gates. Gating strategy for immunophenotypic hematopoietic stem cells (HSCs) defined as Lin−CD34+CD45RA−CD90+ and Lin−CD34+CD45RA−CD90+CD49f+EPCR+ HSCs is shown. Percentages indicate the frequency of the parent (previous) gate.
Plots show samples previously gated through live (PI-) and singlet gates. Gating strategy for immunophenotypic hematopoietic stem cells (HSCs) as Lin−CD34+CD45RA−CD90+ and Lin−CD34+CD45RA−CD90+CD49f+EPCR+ are shown. Percentages indicate the frequency of cells in the parent population.
Depicted is the total number of live cells after 12 days of culturing 10,000 CD34+ enriched cord blood cells in the indicated conditions.
CD34+ cord blood cells were cultured in vitro in the presence of different combinations of compounds as described herein.

Compound | percentage and total number of Lin-CD34+ and Lin- cells | percentage and total number of Lin-CD45RA-CD90+ HSCs (CD34+ cord blood cells, 12 days culture, FIG. 24, 25) | percentage of Lin-CD45RA-CD90+CD49f+EPCR+ HSCs (CD34+ cord blood cells, 12 days culture, FIG. 26, 27)
Nc1cccc2c1C(=O)N(C1CCC(=O)NC1=O)C2=O (centres unmarked) [POM, pomalidomide] | increased | increased | increased
C[S+]([O-])c1ccc(-c2nc(-c3ccc(F)cc3)c(-c3ccncc3)[nH]2)cc1 (centres unmarked) [A, A83-01] | increased | – | –
CC(C)n1cnc2c(NCCc3ccc(O)cc3)nc(-c3csc4ccccc34)nc21 [SR1, StemRegenin 1] | increased | – | –
